What was measured:
[1] = tested on: normal NK cells expanded with K562-aAPC; experiment: drug sensitivity score (DSS) (DSS units); higher = more sensitive; extreme values may be limits of the assay; conditions: 72 h; IL-2 2.5 ng/mL
Protocol: (§1)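 Drug sensitivity and resistance testing on K562-aAPC-expanded normal NK cells: 5 concentrations (10-fold steps over a 10,000-fold range), 72 h at 37 °C, viability by CellTiter-Glo normalised to DMSO and benzethonium chloride controls; DSS from the fitted curve.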

[2] = tested on: normal primary NK cells, pool 3 (3 donors) (IL-2 2.5 ng/mL); experiment: as above; conditions: 72 h
KAI3 (IL-2 2.5 ng/mL) [3] = experiment: as above; conditions: 72 h
[4] = tested on: normal primary NK cells, pool 1 (3 donors) (IL-2 2.5 ng/mL); experiment: as above; conditions: 72 h
SNK-6 (IL-2 2.5 ng/mL) [5] = experiment: as above; conditions: 72 h
KHYG-1 (IL-2 2.5 ng/mL) [6] = experiment: as above; conditions: 72 h
[7] = tested on: normal primary NK cells, pool 2 (3 donors) (IL-2 2.5 ng/mL); experiment: as above; conditions: 72 h
NK-92 (IL-2 2.5 ng/mL) [8] = experiment: as above; conditions: 72 h
YT (IL-2 2.5 ng/mL) [9] = experiment: as above; conditions: 72 h
DERL-7 (IL-2 2.5 ng/mL) [10] = experiment: as above; conditions: 72 h
[11] = tested on: normal primary NK cells, pool 1 (3 donors), resting (IL-2 0 ng/mL); experiment: as above; conditions: 72 h
NKL (IL-2 2.5 ng/mL) [12] = experiment: as above; conditions: 72 h
NK-YS (IL-2 2.5 ng/mL) [13] = experiment: as above; conditions: 72 h
IMC-1 (IL-2 20 ng/mL) [14] = experiment: as above; conditions: 72 h
[15] = tested on: normal NK cells expanded with K562-aAPC; experiment: percent inhibition of viability; higher = more inhibition; conditions: 72 h, IL-2 2.5 ng/mL
Protocol: as §1

[16] = tested on: normal primary NK cells, pool 3 (3 donors) (IL-2 2.5 ng/mL); experiment: as above; conditions: 72 h
KAI3 (IL-2 2.5 ng/mL) [17] = experiment: as above; conditions: 72 h
[18] = tested on: normal primary NK cells, pool 1 (3 donors) (IL-2 2.5 ng/mL); experiment: as above; conditions: 72 h
SNK-6 (IL-2 2.5 ng/mL) [19] = experiment: as above; conditions: 72 h
KHYG-1 (IL-2 2.5 ng/mL) [20] = experiment: as above; conditions: 72 h
[21] = tested on: normal primary NK cells, pool 2 (3 donors) (IL-2 2.5 ng/mL); experiment: as above; conditions: 72 h
NK-92 (IL-2 2.5 ng/mL) [22] = experiment: as above; conditions: 72 h
YT (IL-2 2.5 ng/mL) [23] = experiment: as above; conditions: 72 h
DERL-7 (IL-2 2.5 ng/mL) [24] = experiment: as above; conditions: 72 h
[25] = tested on: normal primary NK cells, pool 1 (3 donors), resting (IL-2 0 ng/mL); experiment: as above; conditions: 72 h
NKL (IL-2 2.5 ng/mL) [26] = experiment: as above; conditions: 72 h
NK-YS (IL-2 2.5 ng/mL) [27] = experiment: as above; conditions: 72 h
IMC-1 (IL-2 20 ng/mL) [28] = experiment: as above; conditions: 72 h

C=CCN(/C=C1/C(=O)O[C@H](COC)[C@@]2(C)C1=C(O)C(=O)C1=C2[C@H](OC(C)=O)C[C@]2(C)C(=O)CC[C@@H]12)CC=C [Sonolisib] (max concentration tested 10000 nM)
Conditions | drug sensitivity score
DERL-7 (IL-2 2.5 ng/mL) [10] | 1.49
IMC-1 (IL-2 20 ng/mL) [14] | 0
KAI3 (IL-2 2.5 ng/mL) [3] | 2.98
KHYG-1 (IL-2 2.5 ng/mL) [6] | 0.5
NK-92 (IL-2 2.5 ng/mL) [8] | 4.58
NK-YS (IL-2 2.5 ng/mL) [13] | 2.85
NKL (IL-2 2.5 ng/mL) [12] | 3.66
SNK-6 (IL-2 2.5 ng/mL) [5] | 0.79
YT (IL-2 2.5 ng/mL) [9] | 1.45
[1] | 1.91
[2] | 2.06
[4] | 5.59
[7] | 3.83
[11] | 5.24

percent inhibition of viability [%]
Conditions | 1 nM | 10 nM | 100 nM | 1000 nM | 10000 nM
DERL-7 (IL-2 2.5 ng/mL) [24] | 4.44 | 0.05 | 7.66 | 7.97 | 25.7
IMC-1 (IL-2 20 ng/mL) [28] | -9.13 | -2.03 | -1.28 | -0.72 | 6.3
KAI3 (IL-2 2.5 ng/mL) [17] | -2.28 | -8.79 | -2.59 | 6.95 | 37.8
KHYG-1 (IL-2 2.5 ng/mL) [20] | -3.26 | -9.75 | -5.87 | -0.67 | 19.3
NK-92 (IL-2 2.5 ng/mL) [22] | -0.51 | -6.14 | 4.9 | 21.8 | 43.3
NK-YS (IL-2 2.5 ng/mL) [27] | -0.83 | -2.4 | -0.43 | 13.8 | 28.2
NKL (IL-2 2.5 ng/mL) [26] | -7.87 | -4.63 | -1.36 | 21.9 | 28.6
SNK-6 (IL-2 2.5 ng/mL) [19] | -13.7 | -20.8 | -21.5 | -12.3 | 28.8
YT (IL-2 2.5 ng/mL) [23] | -3.75 | -4.21 | -0.91 | 9.17 | 19.1
[15] | -4.81 | -6.86 | -3.23 | 3.22 | 31.4
[16] | -11.6 | 9.95 | 14.7 | 4.05 | 31.2
[18] | -5.92 | 11.5 | 7.17 | 23.3 | 57
[21] | -5.83 | 0.64 | 8.59 | 17.3 | 40.2
[25] | -7.82 | 8.6 | 11.1 | 16.4 | 59.7

Cc1cc2c(F)c(Oc3ncnn4cc(OC[C@@H](C)O)c(C)c34)ccc2[nH]1 [Brivanib] (max concentration tested 1000 nM)
Conditions | drug sensitivity score
DERL-7 (IL-2 2.5 ng/mL) [10] | 0
IMC-1 (IL-2 20 ng/mL) [14] | 0
KAI3 (IL-2 2.5 ng/mL) [3] | 0
KHYG-1 (IL-2 2.5 ng/mL) [6] | 0
NK-92 (IL-2 2.5 ng/mL) [8] | 0
NK-YS (IL-2 2.5 ng/mL) [13] | 0.18
NKL (IL-2 2.5 ng/mL) [12] | 0
SNK-6 (IL-2 2.5 ng/mL) [5] | 0
YT (IL-2 2.5 ng/mL) [9] | 0
[1] | 0
[2] | 0
[4] | 0
[7] | 0
[11] | 0

percent inhibition of viability [%]
Conditions | 0.1 nM | 1 nM | 10 nM | 100 nM | 1000 nM
DERL-7 (IL-2 2.5 ng/mL) [24] | 0.94 | 7.48 | -2.36 | 3.07 | -1.62
IMC-1 (IL-2 20 ng/mL) [28] | -8.23 | -2.37 | -10.1 | -3.91 | -8.67
KAI3 (IL-2 2.5 ng/mL) [17] | -2.86 | 1.99 | -5.53 | -0.99 | -2.38
KHYG-1 (IL-2 2.5 ng/mL) [20] | -4.66 | -2.28 | -3.77 | -3.68 | -5.25
NK-92 (IL-2 2.5 ng/mL) [22] | -10.1 | -9.6 | -3.98 | -10.2 | -5.2
NK-YS (IL-2 2.5 ng/mL) [27] | -2 | -5.08 | -6.17 | 0.88 | 13.4
NKL (IL-2 2.5 ng/mL) [26] | -11.2 | -9.83 | -21.6 | -12.1 | -10.2
SNK-6 (IL-2 2.5 ng/mL) [19] | 5.84 | -0.07 | 3.56 | 8.94 | 4.87
YT (IL-2 2.5 ng/mL) [23] | -2.1 | -2.63 | -1.47 | -0.95 | -3.56
[15] | 0.76 | -1.44 | 1.84 | -3.64 | -2.22
[16] | -9.42 | -10.1 | -12.4 | -11 | -7.07
[18] | -8.41 | -6.09 | 4.52 | -3.63 | -4.56
[21] | -6.73 | -10 | -9.37 | -10.3 | -8.25
[25] | -11.7 | -6.81 | 7.63 | -9.3 | -5.72

CCCCCCCCc1ccc(CCC(N)(CO)CO)cc1 [Fingolimod] (max concentration tested 10000 nM)
Conditions | drug sensitivity score
DERL-7 (IL-2 2.5 ng/mL) [10] | 7.91
IMC-1 (IL-2 20 ng/mL) [14] | 7.23
KAI3 (IL-2 2.5 ng/mL) [3] | 8.95
KHYG-1 (IL-2 2.5 ng/mL) [6] | 7.28
NK-92 (IL-2 2.5 ng/mL) [8] | 5.44
NK-YS (IL-2 2.5 ng/mL) [13] | 7.3
NKL (IL-2 2.5 ng/mL) [12] | 9.92
SNK-6 (IL-2 2.5 ng/mL) [5] | 7.85
YT (IL-2 2.5 ng/mL) [9] | 6.91
[1] | 8.27
[2] | 5.22
[4] | 6.91
[7] | 8.2
[11] | 5.33

percent inhibition of viability [%]
Conditions | 1 nM | 10 nM | 100 nM | 1000 nM | 10000 nM
DERL-7 (IL-2 2.5 ng/mL) [24] | 2.13 | -1.97 | 5.25 | 14.2 | 100
IMC-1 (IL-2 20 ng/mL) [28] | 1.04 | 3.67 | 4.21 | 10.1 | 101
KAI3 (IL-2 2.5 ng/mL) [17] | -5.76 | 2.36 | -1.55 | 21.5 | 101
KHYG-1 (IL-2 2.5 ng/mL) [20] | -0.79 | 1.01 | 0.07 | 10.2 | 102
NK-92 (IL-2 2.5 ng/mL) [22] | 1.29 | 3.97 | 7.28 | -5.13 | 103
NK-YS (IL-2 2.5 ng/mL) [27] | -1.37 | 0.63 | 1.86 | 10.4 | 102
NKL (IL-2 2.5 ng/mL) [26] | -3 | 6.8 | 9.6 | 30.1 | 101
SNK-6 (IL-2 2.5 ng/mL) [19] | 2.86 | 25.2 | 18.7 | 13.7 | 101
YT (IL-2 2.5 ng/mL) [23] | 1.77 | 4.72 | 1.22 | 8.33 | 101
[15] | -2.7 | -1.12 | 2.03 | 16.4 | 101
[16] | -17.7 | -6.84 | 5.41 | -5.02 | 100
[18] | -0.71 | -3.03 | -0.07 | 8.48 | 101
[21] | -5.21 | -6.36 | 4.8 | 16 | 101
[25] | 0.28 | -1.75 | -1.3 | -3.49 | 100

Reference: the supplement of paper PMC5908809
